Here are results for six molecules from PMC11773557, “NADPH-Independent Fluorescent Probe for Live-Cell Imaging of Heme Oxygenase-1” (ACS Sensors, 2025).

Data set [1] relates to HO-1 expression. Particulars: study by Fang and co-workers; cited from earlier work.
The test system of data set [2] is HO-1 expression in A549 cells. Put plainly: HO-1 ELISA of treated A549 cells. In kind it is cell-based, human. As to conditions: 24 h, HO-1 ELISA kit, versus DMSO control. Here is the method:
7. Enzyme linked immunosorbent assay (ELISA)
A549 cells (8×10^3 cells per well) were seeded in 6-well plates and incubated in a CO2 incubator at 37°C for 24 h. Cells were treated with 50 μM hemin, 1 μM ZnPP or DMSO. After 24 h incubation, cells were washed with PBS, lysed with NP-40 buffer containing 1.0 mM PMSF, followed by centrifugation (12000 rpm, 5 min) to harvest the supernatant. The assay was carried out by strictly following instructions provided. Absorbance at 450 nm was recorded using the BioTek Synergy-2 Microplate Reader to calculate the HO-1 concentration under different treatments. […]
(§1) 37°C for 24 h. Cells were treated with 50 μM hemin, 1 μM ZnPP or DMSO. After 24 h incubation, 10 μM NBD-P 5 was added and incubated with the cells for 2 h. The cells were then fixed with 4% polyoxymethylene for 20 min. Afterwards, the nuclei were stained using DAPI for 20 min. […]

For data set [3], the system named is HO-1 levels in live A549 cells. Nature of the data set: Fluorescence imaging of HO-1 levels with NBD-P5 in treated A549 cells. Format: cell-based, human. Particulars: A549 cells pretreated 24 h (hemin 50 μM, ZnPP 1 μM), then NBD-P5 10 μM 2 h, confocal imaging. Here is the method:
(§2) 37°C for 24 h. Cells were treated with 50 μM hemin, 1 μM ZnPP or DMSO. […]
A549 cells (8×10^3 cells per well) were seeded into confocal dish and incubated in a CO2 incubator at 37°C for 24 h. Cells were treated with 50 μM hemin, 1 μM ZnPP or DMSO. After 24 h incubation, 10 μM NBD-P 5 was added and incubated with the cells for 2 h. The cells were then fixed with 4% polyoxymethylene for 20 min. Afterwards, the nuclei were stained using DAPI for 20 min.
Fluorescence images were measured by ZEISS LSM 980 with Airyscan 2 confocal laser scanning

In data set [4] the target is T1, recombinant HO-1 protein with a 6xHis tag (Homo sapiens, UniProt P09601).
T1 construct: 6xHis
T1 sequence (P09601 1-288): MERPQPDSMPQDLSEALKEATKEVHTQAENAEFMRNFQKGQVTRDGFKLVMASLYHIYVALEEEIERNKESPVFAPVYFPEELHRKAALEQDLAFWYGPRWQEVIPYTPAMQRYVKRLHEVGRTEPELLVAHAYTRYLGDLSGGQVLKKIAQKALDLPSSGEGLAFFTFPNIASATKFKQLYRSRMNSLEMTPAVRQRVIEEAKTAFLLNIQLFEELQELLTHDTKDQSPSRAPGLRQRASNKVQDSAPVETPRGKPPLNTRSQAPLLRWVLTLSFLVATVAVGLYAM
Put plainly: Luminescence titration of NBD-Pn with HO-1. Format: binding. As to conditions: 4.5 μM HO-1, 2 μM probe, pH 7.4 PBS, λex = 475 nm; for increase in fluorescence intensity on addition of HO-1: emission at 526 nm, measured within 1 min. Here is the method:
(§3) 4. Photophysical measurements
(§4) All spectra were measured using a stock solution of the probes (1 mM in DMSO) which was diluted with pH 7.4 PBS buffer to the desired concentration. […]
All measurements were conducted using a 700 μL quartz cuvette and within a minute after addition of the analyte. […]

Data set [5] deals with human serum albumin (HSA) (Homo sapiens, UniProt P02768). Nature of the data set: Selectivity assay, emission with HSA. Format: binding. As to conditions: 4.5 μM HSA, 2 μM probe, pH 7.4 PBS, emission at 526 nm. Here is the method: as §3, §4
Chain of human serum albumin (HSA) (P02768 25-609): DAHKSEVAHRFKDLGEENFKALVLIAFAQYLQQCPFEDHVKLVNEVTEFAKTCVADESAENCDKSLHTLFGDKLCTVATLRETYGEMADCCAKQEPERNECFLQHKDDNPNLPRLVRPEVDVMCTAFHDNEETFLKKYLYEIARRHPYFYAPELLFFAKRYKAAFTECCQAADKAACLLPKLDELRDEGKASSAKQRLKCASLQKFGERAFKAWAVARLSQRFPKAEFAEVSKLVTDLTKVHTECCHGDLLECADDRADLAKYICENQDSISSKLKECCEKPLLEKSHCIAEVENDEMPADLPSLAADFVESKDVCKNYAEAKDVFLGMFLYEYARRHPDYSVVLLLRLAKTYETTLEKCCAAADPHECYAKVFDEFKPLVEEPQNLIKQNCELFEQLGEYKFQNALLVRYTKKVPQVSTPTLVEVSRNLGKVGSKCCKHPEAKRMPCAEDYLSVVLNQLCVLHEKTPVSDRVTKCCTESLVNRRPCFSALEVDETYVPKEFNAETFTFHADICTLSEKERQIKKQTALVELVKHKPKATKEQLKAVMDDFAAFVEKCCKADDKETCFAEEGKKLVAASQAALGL
(§5) Selectivity assay was performed by measuring emission of NBD-Pn in pH 7.4 PBS buffer in presence of varying analytes including HO-1, common proteins, amino acids, and biologically relevant ions. All measurements were conducted using a 700 μL quartz cuvette and within a minute after addition of the analyte. […]

In data set [6] the target is bovine serum albumin (BSA) (Bos taurus, UniProt P02769). Put plainly: Selectivity assay, emission with BSA. Format: binding. Particulars: 4.5 μM BSA, 2 μM probe, pH 7.4 PBS, emission at 526 nm. Here is the method:
as §3, §4, §5

For data set [7], the system named is A549 cells. Put plainly: Flow cytometry analysis of cellular uptake. Particulars: 10 μM, time course of 2.5 h. Format: cell-based, human. Here is the method: as §2
8. Flow cytometry analysis
A549 cells were first seeded into 12-well plates (1.0 × 10^5 cells/well) and incubated overnight to achieve adherence. Then, 10 μM NBD-P 5 was added, and incubated for different times. The cells were washed twice with cold PBS and harvested by trypsinization, followed by centrifugation (1500 x g, 5.0 min). The obtained cells were re-suspended in PBS and analyzed using flow cytometry (BD […]
as §1
In general terms: A flow cytometer gives signals particle by particle.

In data set [8] the test system is A549 cells. Put plainly: Colocalization experiment with organelle trackers. Format: cell-based, human. Particulars: 10 μM probe 2 h. Here is the method: 10. Colocalization experiment
A549 cells (8×10^3 cells per well) were seeded into confocal dish and incubated in a CO2 incubator at 37°C for 24 h. After incubation with NBD-P5 (10 μM) for 2 h, cells were co-stained with ER-Tracker red (400 nM) for 20 min, Lyso-Tracker red (60 nM) for 30 min, or Mito-Tracker red (50 nM) for 30 min. Fluorescence images were measured by ZEISS LSM 980 with Airyscan 2 confocal laser scanning

Data set [9] addresses T2, NBD-P5.
T2 construct: also called YWFYR-CONH2; NBD-Pn (n = 5); source: synthetic peptide, NBD-Ahx coupled with PyBOP, TFA cleavage, reversed-phase HPLC
T2 peptide: {NBD-Ahx}-YWFYR-NH2
Nature of the data set: other fluorescence titration; emission of the NBD probe (2 uM, ex 475 nm, read at 526 nm) on addition of protein in solution (HO-1 in increasing concentrations up to 4.5 uM; HSA, BSA at 4.5 uM); measured within a minute after addition. As to conditions: both partners purified.

Data set [10] deals with T3, NBD-P4.
T3 construct: caveolin-1 residues Y97-Y100 (the pentapeptide without arginine 101); also called YWFY-CONH2; NBD-Pn (n = 4); source: synthetic peptide, NBD-Ahx coupled with PyBOP, TFA cleavage, reversed-phase HPLC
T3 peptide: {NBD-Ahx}-YWFY-NH2
The description is as above. As to conditions: both partners purified.

Where a SMILES comes first, the peptide text is derived from it. The star is where a group is joined. NBD = O=[N+]([O-])c1ccc(*)c2nonc12; Ahx = NCCCCCC(=O)O

Chain of bovine serum albumin (BSA) (P02769 25-607): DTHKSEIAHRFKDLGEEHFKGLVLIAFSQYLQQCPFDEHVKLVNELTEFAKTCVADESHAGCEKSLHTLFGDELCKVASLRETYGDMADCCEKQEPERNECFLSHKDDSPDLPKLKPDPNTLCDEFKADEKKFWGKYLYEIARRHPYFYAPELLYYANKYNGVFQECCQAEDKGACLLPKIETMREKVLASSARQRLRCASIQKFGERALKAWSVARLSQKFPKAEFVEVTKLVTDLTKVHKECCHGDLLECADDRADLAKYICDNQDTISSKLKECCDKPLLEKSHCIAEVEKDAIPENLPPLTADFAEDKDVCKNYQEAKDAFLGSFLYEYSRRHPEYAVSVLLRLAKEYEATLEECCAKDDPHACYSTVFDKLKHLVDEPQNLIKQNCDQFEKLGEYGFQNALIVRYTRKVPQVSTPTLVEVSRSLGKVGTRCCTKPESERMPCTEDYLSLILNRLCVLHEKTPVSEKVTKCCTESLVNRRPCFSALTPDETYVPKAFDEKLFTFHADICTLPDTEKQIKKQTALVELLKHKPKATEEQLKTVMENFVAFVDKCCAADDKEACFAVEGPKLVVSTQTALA

Take `CC(C)(C)c1cc(O)ccc1O` [tBHQ]: in data set [1], the “upregulation of HO-1” value is listed as “about 1.6 fold”.

In the case of hemin, the “upregulation of HO-1 expression” value in [2] (50 μM) is “around 1.53 fold”. The “NBD-P5 fluorescence in treated cells compared with control cells” value in data set [3] is recorded as “significantly stronger green fluorescence”.

In the case of `N=C(N)NCCC[C@H](NC(=O)[C@H](Cc1ccc(O)cc1)NC(=O)[C@H](Cc1ccccc1)NC(=O)[C@H](Cc1c[nH]c2ccccc12)NC(=O)[C@H](Cc1ccc(O)cc1)NC(=O)CCCCCNc1ccc([N+](=O)[O-])c2nonc12)C(N)=O` [NBD-P5] (HELM PEPTIDE1{[O=[N+]([O-])c1ccc([*:2])c2nonc12].[O=C(CCCCCN[*:1])[*:2]].Y.W.F.Y.R.[am]}$$$$V2.0), in data set [4], the “blue shift in fluorescence wavelength maxima on addition of HO-1” value is recorded as 24 nm and the “increase in fluorescence intensity on addition of HO-1” value was determined as 9 fold. For the same molecule, the “fluorescence change on addition of HSA” value in data set [5] was “small fluorescence increase”. Also, the “fluorescence change on addition of BSA” value in data set [6] was “small fluorescence increase”. The “uptake by A549 cells” value in data set [7] is “increased rapidly in the first 1 h”. For the same molecule, the “Pearson's correlation coefficient with ER-Tracker red” value in [8] (ER-Tracker red 400 nM 20 min, ImageJ) worked out at 0.97. The “colocalization with either Lyso-Tracker or Mito-Tracker” value in data set [8] (Lyso-Tracker red 60 nM or Mito-Tracker red 50 nM 30 min) is “not as significant as that with ER-Tracker”.

For `C=CC1=C(C)c2cc3[n-]c(cc4[n-]c(cc5nc(cc1n2)C(C)=C5C=C)c(C)c4CCC(=O)O)c(CCC(=O)O)c3C.[Zn+2]` [ZnPP, zinc(II) protoporphyrin], in data set [2] (1 μM), the “HO-1 level relative to DMSO control” value was found to be 0.89 fold. In data set [3], the “NBD-P5 fluorescence in treated cells compared with control cells” value was “relatively weaker fluorescence signal”.

As to `NC(=O)[C@H](Cc1ccc(O)cc1)NC(=O)[C@H](Cc1ccccc1)NC(=O)[C@H](Cc1c[nH]c2ccccc12)NC(=O)[C@H](Cc1ccc(O)cc1)NC(=O)CCCCCNc1ccc([N+](=O)[O-])c2nonc12` [NBD-P4] (HELM PEPTIDE1{[O=[N+]([O-])c1ccc([*:2])c2nonc12].[O=C(CCCCCN[*:1])[*:2]].Y.W.F.Y.[am]}$$$$V2.0), in data set [4], the “increase in fluorescence intensity on addition of HO-1” value is 6 fold.

B1: Heme oxygenase-1 (enzyme)
chain: T1 sequence (P09601 1-288)
With B1, in data set [9], the “fold increase in fluorescence intensity of the probe with 4.5 uM HO-1” value came to 9 fold. Besides, the “fold increase in fluorescence intensity of the probe with HO-1” value in [10] was found to be 6 fold.
